Data from patent publication US12102637B2, “Pharmaceutical formulations for treating endometriosis, uterine fibroids, polycystic ovary syndrome or adenomyosis” (AbbVie Inc., priority 2017, dated 2024).

How the values were obtained:
[1] = system: premenopausal women with HMB, uterine fibroids and adenomyosis; assay: Phase 2b trial in women with HMB and uterine fibroids, subgroup with non-dominant adenomyosis; type: in vivo, human
Description: Patients and Methods: […] Elagolix studied in this clinical trial comprised the sodium salt of Compound A. All subjects were evaluated with ultrasound and a subset volunteered to also be evaluated by MRI. […] Efficacy and safety were evaluated post hoc in a subgroup of women who had confirmed non-dominant adenomyosis (ultrasound/MRI) at baseline. Menstrual blood loss (MBL) was quantified from sanitary products (alkaline hematin). […] Adverse events (AEs) were recorded.

[2] = system: luteinizing hormone (LH) and follicle-stimulating hormone (FSH); assay: Suppression of LH and FSH levels; type: in vivo, human; conditions: begins within hours of administration, reversible upon discontinuation
Text: (I) Elagolix is an orally administered, short-acting, selective, non-peptide small molecule GnRH receptor antagonist that blocks endogenous GnRH signaling by binding competitively to GnRH receptors in the pituitary gland. […] LH and FSH suppression begins within hours of administration and is readily reversible upon discontinuation of elagolix.

QTc interval = assay: Thorough QT study; type: in vivo, human; conditions: up to 1200 mg; 17- to 23-fold therapeutic concentrations; active control moxifloxacin 400 mg
Description: The effect of elagolix (up to 1200 mg) on QTc interval was evaluated in an active-controlled (moxifloxacin 400 mg) thorough QT study.

[3] = target: efflux transporter P-glycoprotein (P-gp) (Homo sapiens, UniProt P08183); assay: Elagolix as inhibitor and substrate of P-gp
efflux transporter P-glycoprotein (P-gp), sequence (P08183 whole entry): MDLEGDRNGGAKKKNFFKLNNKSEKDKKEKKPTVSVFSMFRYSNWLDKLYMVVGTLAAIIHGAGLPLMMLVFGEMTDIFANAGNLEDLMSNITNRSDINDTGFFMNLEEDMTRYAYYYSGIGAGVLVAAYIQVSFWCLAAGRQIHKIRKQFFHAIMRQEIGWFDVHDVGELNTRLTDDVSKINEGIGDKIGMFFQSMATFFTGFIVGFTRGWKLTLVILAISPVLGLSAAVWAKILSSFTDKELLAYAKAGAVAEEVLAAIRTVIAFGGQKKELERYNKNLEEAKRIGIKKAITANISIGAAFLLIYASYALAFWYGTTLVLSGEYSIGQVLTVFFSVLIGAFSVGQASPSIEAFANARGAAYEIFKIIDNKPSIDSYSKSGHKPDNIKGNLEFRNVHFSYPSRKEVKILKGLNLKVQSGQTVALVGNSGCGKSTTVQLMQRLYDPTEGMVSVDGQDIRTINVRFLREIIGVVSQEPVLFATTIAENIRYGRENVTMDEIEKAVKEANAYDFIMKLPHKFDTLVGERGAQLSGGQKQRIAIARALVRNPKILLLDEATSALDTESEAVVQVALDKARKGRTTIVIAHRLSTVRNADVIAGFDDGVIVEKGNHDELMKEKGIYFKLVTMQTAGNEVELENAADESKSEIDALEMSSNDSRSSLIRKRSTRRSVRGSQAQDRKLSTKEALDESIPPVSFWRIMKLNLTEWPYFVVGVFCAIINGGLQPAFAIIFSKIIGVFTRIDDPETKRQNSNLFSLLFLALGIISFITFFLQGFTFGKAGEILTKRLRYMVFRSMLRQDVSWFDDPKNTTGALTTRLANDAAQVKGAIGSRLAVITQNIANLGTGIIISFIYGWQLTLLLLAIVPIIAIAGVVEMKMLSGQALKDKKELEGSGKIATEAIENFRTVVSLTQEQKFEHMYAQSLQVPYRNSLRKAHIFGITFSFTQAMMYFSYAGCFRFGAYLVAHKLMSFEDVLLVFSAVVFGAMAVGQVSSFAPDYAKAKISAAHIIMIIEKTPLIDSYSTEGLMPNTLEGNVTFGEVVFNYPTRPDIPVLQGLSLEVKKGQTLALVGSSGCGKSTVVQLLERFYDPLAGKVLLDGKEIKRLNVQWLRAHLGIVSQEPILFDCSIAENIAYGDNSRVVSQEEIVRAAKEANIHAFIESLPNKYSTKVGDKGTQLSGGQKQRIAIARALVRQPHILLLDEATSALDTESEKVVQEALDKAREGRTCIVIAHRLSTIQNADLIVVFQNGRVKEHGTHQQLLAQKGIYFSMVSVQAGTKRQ
Description: Elagolix is an inhibitor of efflux transporter P-glycoprotein (P-gp) at 200 mg BID or higher, such as 300 mg BID or 400 mg QD or 600 mg QD. Co-administration with ELAGOLIX 200 mg BID may increase plasma concentration of drugs that are substrates of P-gp.
(§1) Elagolix is a substrate of CYP3A, P-gp, and organic anion transporting polypeptide (OATP)1B1. Clinically meaningful interactions are not expected when elagolix is co-administered with drugs that inhibit CYP3A or P-gp.

[4] = target: T1, organic anion transporting polypeptide (OATP)1B1 (Homo sapiens, UniProt Q9Y6L6); assay: Elagolix as substrate of OATP1B1
T1 sequence (Q9Y6L6 1-691): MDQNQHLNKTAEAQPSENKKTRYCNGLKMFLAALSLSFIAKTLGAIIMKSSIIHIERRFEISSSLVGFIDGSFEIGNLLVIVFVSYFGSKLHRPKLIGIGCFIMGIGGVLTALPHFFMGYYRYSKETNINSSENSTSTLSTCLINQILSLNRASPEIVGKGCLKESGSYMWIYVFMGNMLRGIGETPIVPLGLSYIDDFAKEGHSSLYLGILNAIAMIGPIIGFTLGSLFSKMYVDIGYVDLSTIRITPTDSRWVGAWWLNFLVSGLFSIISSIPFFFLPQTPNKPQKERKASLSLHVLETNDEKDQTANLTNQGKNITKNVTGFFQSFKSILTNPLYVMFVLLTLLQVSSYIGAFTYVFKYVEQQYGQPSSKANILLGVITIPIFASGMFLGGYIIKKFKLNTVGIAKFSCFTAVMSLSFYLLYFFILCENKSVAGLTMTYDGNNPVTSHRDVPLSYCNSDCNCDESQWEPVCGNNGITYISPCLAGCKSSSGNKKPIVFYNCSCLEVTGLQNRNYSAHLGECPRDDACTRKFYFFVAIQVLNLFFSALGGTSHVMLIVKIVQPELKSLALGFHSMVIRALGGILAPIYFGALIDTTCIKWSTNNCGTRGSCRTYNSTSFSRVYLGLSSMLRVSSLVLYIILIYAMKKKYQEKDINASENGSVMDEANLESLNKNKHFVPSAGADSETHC
Text: as §1

[5] = Mutagenicity studies, in vitro and in vivo test systems
Text: Mutagenicity studies have been performed with elagolix using in vitro and in vivo test systems.

rats = assay: Fertility and repeat-dose studies in rats; type: in vivo, rat
Text: Based on pharmacologic actions of elagolix in humans a reversible effect on fertility may be expected in women.

[6] = system: premenopausal women with endometriosis with associated pain; assay: Studies EM-I and EM-II: dysmenorrhea scores and Numeric Rating Scale (NRS) pain; type: in vivo, human
Text: Women in these studies also provided a daily self-assessment of their endometriosis pain using the Numeric Rating Scale (NRS), on a scale ranging from 0 (no pain) to 10 (worst pain ever).

[7] = system: premenopausal women with endometriosis with associated pain; assay: Rescue analgesic (opioid, naproxen) use in EM-I and EM-II; type: in vivo, human
Description: These effects were less consistently observed for women taking elagolix 150 mg QD. […] Reduction in pain may be reflected by reduction in pain medication, such as prescription opioids or non-steroidal anti-inflammatory agents (NSAIDs) that may be prescribed or found over the counter, for example, naproxen or acetaminophen. […] In this pooled analysis of rescue analgesic use in two phase 3 trials, compared with placebo: […] […] In EM-1 and EM-2, 59% and 60% of patients used an opioid rescue analgesic for pain at baseline. The opioid rescue analgesics used at baseline were predominantly hydrocodone/acetaminophen (HC/APAP) and codeine/APAP at strengths of 5/300-325 mg and 30/300-500 mg. In EM-1, of all patients on an opioid at baseline, 98% and 2% were on HC/APAP and codeine/APAP, respectively. In EM-2, of all patients on an opioid at baseline, 50% were on HC/APAP, 16% were on codeine/APAP, 3% were on codeine, and 32% were on tramadol/APAP.

[8] = system: bone mineral density (BMD); assay: Bone mineral density by DXA (lumbar spine, Z-score) in placebo-controlled and extension studies; type: in vivo, human; conditions: for patients with Z-score below the normal lower bound of −2.0: following 12 months of treatment
Description: In the placebo-controlled and extension clinical studies, BMD was measured by DXA. Changes observed in BMD at other anatomical sites (femoral neck, total hip) were generally smaller than lumbar spine.

[9] = Elagolix 150 mg QD, On Treatment Month 6
[10] = Elagolix 150 mg QD, On Treatment Month 12
[11] = Elagolix 200 mg BID, On Treatment Month 6
[12] = Elagolix 200 mg BID, On Treatment Month 12

## COc1cccc(-c2c(C)n(Cc3c(F)cccc3C(F)(F)F)c(=O)n(C[C@H](NCCCC(=O)O)c3ccccc3)c2=O)c1F [Compound A, 4-((R)-2-[5-(2-fluoro-3-methoxy-phenyl)-3-(2-fluoro-6-trifluoromethyl-benzyl)-4-methyl-2,6-dioxo-3,6-dihydro-2H-pyrimidin-1-yl]-1-phenyl-ethylamino)-butyric acid]
[1]; Cohort 1, elagolix 300 mg BID with 0.5 mg E2/0.1 mg NETA (n=12)
  proportion of women with ≥50% reduction from baseline in HMB and <80 mL MBL in the last 28 days of treatment: 83%
[1]; Cohort 1, elagolix 300 mg BID with 1.0 mg E2/0.5 mg NETA (n=5)
  proportion of women with ≥50% reduction from baseline in HMB and <80 mL MBL in the last 28 days of treatment: 100%
[1]; Cohort 2, elagolix 600 mg QD with 0.5 mg E2/0.1 mg NETA (n=14)
  proportion of women with ≥50% reduction from baseline in HMB and <80 mL MBL in the last 28 days of treatment: 93%
[1]; Cohort 2, elagolix 600 mg QD with 1.0 mg E2/0.5 mg NETA (n=9)
  proportion of women with ≥50% reduction from baseline in HMB and <80 mL MBL in the last 28 days of treatment: 89%
[1]; elagolix-treated groups (n=22) in Cohort 1
  At least 1 AE, related or unrelated to study drug: 77%
[1]; elagolix-treated groups (n=38) in Cohort 2
  At least 1 AE, related or unrelated to study drug: 67%
[2]
  LH and FSH levels: dose-dependent suppression
QTc interval
  Effect on QTc interval: does not prolong the QTc interval
[3]
  substrate of P-gp: substrate
[3]; at 200 mg BID or higher
  inhibition of efflux transporter P-glycoprotein (P-gp): inhibitor
[4]
  substrate of organic anion transporting polypeptide (OATP)1B1: substrate
[5]
  mutagenic or clastogenic potential: no evidence of a mutagenic or clastogenic potential
rats; doses 50, 150, 300 mg/kg/day
  effect in fertility study: no effect
rats; doses 600, 800 mg/kg/day
  ovarian findings in repeat-dose study: involution and a decrease in corpora lutea in ovaries
[6]; 150 mg QD and 200 mg BID, vs placebo at Month 3 and Month 6
  Numeric Rating Scale (NRS) endometriosis pain scores: highly statistically (p<0.001) significant reduction in NRS scores
[6]; both elagolix treatment groups, Month 1 through Month 6, vs placebo
  mean decreases from Baseline in dysmenorrhea scores: statistically significantly greater than placebo
[7]; 200 mg BID
  amount of opioid or naproxen rescue medication used vs baseline: reduced the amount of opioid (hydrocodone with acetaminophen) or naproxen rescue medication
[7]; pooled analysis, 200 mg BID, vs placebo
  mean percent daily rescue opioid pill counts: significant reduction in the mean percent daily pill counts
[7]; pooled analysis, both doses 150 QD and 200 BID, vs placebo
  percentage of days in which rescue opioid medication was taken: significant reduction in the percentage of days in which rescue opioid medication was taken
[8]; [9]
  % Subjects Z-score ≤ −1.5 of Lumbar Spine: 0.8%
  Mean Percent Change From Baseline in Bone Mineral Density of Lumbar Spine: −0.52%
[8]; [10]
  % Subjects Z-score ≤ −1.5 of Lumbar Spine: 1.3%
  Mean Percent Change From Baseline in Bone Mineral Density of Lumbar Spine: −0.87%
[8]; [11]
  % Subjects Z-score ≤ −1.5 of Lumbar Spine: 4.1%
  Mean Percent Change From Baseline in Bone Mineral Density of Lumbar Spine: −2.54%
[8]; [12]
  % Subjects Z-score ≤ −1.5 of Lumbar Spine: 5.1%
  Mean Percent Change From Baseline in Bone Mineral Density of Lumbar Spine: −3.76%
[8]; both elagolix treatment groups, lumbar spine, total hip and femoral neck, post-treatment months 6 and 12
  BMD after stopping treatment: progressive recovery of BMD
[8]; 150 mg daily dose
  patients with Z-score below the normal lower bound of −2.0: no patient
[8]; 200 mg BID dose
  patients with Z-score below the normal lower bound of −2.0: less than 1%
